SMILES strings stand for the structures.

One assay relates to CTLA-4. The assay is described as follows: Intracellular staining of MT2 cells with fluorescence-labeled anti-CTLA-4 antibody and measurement by flow cytometry. It is filed as cell-based, human. Conditions: 48±2 hours; for Peak MFI of CTLA-4: isotype IgG2a subtracted, average of n=3. Here is the method: (§1) MT2 cells from human adult T-cell leukemia were used. Leukemia cells of human adult T-cell leukemia (ATL) express CD4 and CD25 molecules on the cell surface and are considered to be derived from Treg (Chen S. et al., International Immunology 18:269-277 (2005)). MT2 cells were used in experiments as models of Treg since the cells are CD4 positive, CD25 positive, and FOXP3 positive celles derived from ATL.
(§2) The example compounds (compounds 1-17) of the present invention were dissolved in dimethylsulfoxide (DMSO) to prepare each 50 mmol/L solution, which was preserved at −80° C.
(1) MT2 cells were suspended in RPMI1640 medium (hereinafter referred to as “the medium”) supplemented with 10% fetal calf serum (FCS) and 1° penicillin/streptomycin (P/S) to give 3×10^5 cells/mL suspension and 3 mL of the suspension was added to each well of a 6-well plate. To each well were added 0.6 or 1.2 μL of the test compound solutions (compounds 1, 2, and 4), 0.75 or 1.5 μL of the test compound solution (compound 9), and 1.5 μL of the test compound solutions (compounds 8 and 10-17), and the cell cultures were incubated in a CO2 gas incubator (under 37° C., 5% CO2) and cultured for 48±2 hours. As a control of compound 1, 2 and 4, only 1.2 μL of DMSO was added to the well. In addition, as a control of compound 8-17, only 1.5 μL of DMSO was added to the well.
(2) A piece of the cell culture was sampled to count cells with a cell counter (BIO RAD TC-20). The cell culture was centrifuged at 300×g for 5 min, and the supernatant was removed. The residue was suspended in phosphate buffered saline (supplemented with 1% bovine serum albumin (BSA), without calcium and magnesium) (1% BSA/PBS) to adjust the concentration of cells to 5-10×10^6 cells/mL.
(3) To 5 ml tube, each 50 μL of the cell suspension was added.
(4) Foxp3/Transcription Factor Fix/Perm Concentrate (4×) (Cat. No. TNB-1020-L050) (Solution A) in FOXP3/Transcription Factor Staining kit (TONBO biosciences) was diluted with Foxp3/Transcription Factor Fix/Perm Diluent (1×) (Cat. No. TNB-1022-L160) (for dilution of Solution A) to prepare 1× Solution A.
(5) 1 mL of 1× Solution A was added to each tube and mixed by gentle pipetting. Subsequently, it was left at room temperature for 30 min, centrifuged at 300×g for […], and the supernatant was discarded.
(6) Flow Cytometry Perm Buffer (10×) (Cat. No. TNB-1213-L150) (Solution B) in the kit was diluted 10-fold with water to prepare 1× Solution B.
(7) 2 mL of 1× Solution B was added to the tube and centrifuged at 300×g for 5 min. The supernatant was discarded. 2 μL of 2% normal mouse serum/PBS was added to the tube and the tube was gently pipetted. Subsequently, it was left at room temperature for 15 min.
(8) In the CTLA-4 measurement, 20 μL of anti-CTLA-4 antibody (BECKMAN COULTER, CD152-PE clone BN13I M2282) or mouse IgG2a (BECKMAN COULTER, IgG2a (Mouse)-PE A09142) for the control was added to the tube and the tube was gently stirred. Subsequently, it was left in the dark at room temperature for 30 min, and 2 mL of the 1× Solution B was added thereto, the mixture was centrifuged at 300×g for 5 min, and the supernatant was discarded. 2 mL of the 1× Solution B was added to the tube again, the mixture was centrifuged at 300×g for 5 min, and the supernatant was discarded.
(9) Within 2 hours after the solution in the tube was suspended in 0.5 mL of 1% BSA/PBS, and the fluorescence at 577 nm was measured with 488 nm excitation with a flow cytometer (Sony: Cell Sorter SH800). The results were analyzed with software, FlowJo (Tree Star Inc.). The mean peak fluorescence intensity (MFI) of CTLA-4 and mean peak fluorescence intensity of isotype control IgG2a were calculated from histgrams of the measured fluorescence intensity and number of cells, and mean fluorescence intensity of IgG2a was subtracted from that of CTLA-4. Experiments were conducted in n=3, and the average values were shown.
For orientation: Flow cytometry measures light scatter and fluorescence of single cells or particles in a stream.

The next assay relates to IL-10. The assay is described as follows: Measurement of human IL-10 amount in culture supernatant of MT2 cells with ELISA kit (Test 1). As to conditions: 48±2 hours; for activity at 12.5 µM / activity at 25 µM: Homo sapiens, 48 h, DMSO control = 100%, read-out: % against control (IL-10 production). Format: cell-based. The procedure: as §1, §2
The amount of IL-10 production in the control and the example compounds was measured to evaluate the inhibitory effect on IL-10 production of the example compounds of the present invention.
(1) MT2 cells are suspended in RPMI1640 medium (hereinafter referred to as “the medium”) supplemented with 10% fetal calf serum (FCS) and 1% penicillin/streptomycin (P/S) to give 3×10^5 cells/mL suspension, and 1 mL of the suspension was added to each well of a 24-well plate. […] The cell cultures were incubated 48±2 hours in a CO2 incubator (under a condition of 37° C., 5 CO2). DMSO was diluted 50-fold with the medium, and 20 μL of the diluent was added to the well to make a control of compounds 1-7. In addition, DMSO was diluted 50-fold with the medium, and 25.0 μL of the diluent was added to the well to make a control of compounds 8-17.
(2) A piece of the cell culture was sampled to count cells with a cell counter (BIO RAD TC-20). The cell culture was centrifuged at 300×g for 5 minutes and the supernatant was collected as a sample for IL-10 measurement. When not measured within a day, it was preserved in a freezer at −80° C.
(3) Human IL-10 ELISA kit II (BD OptEIA) was used on the measurement. The kit contains wells treated with anti-IL-10 antibody (8 wells/strip), Standard/Sample diluent, vials comprising freeze-dried IL-10 Standard (1280 pg/vial), ELISA diluent, 20× Wash Buffer, Detection antibody, Enzyme Concentrate, TMB One Step Substrate Reagent, Stop Solution, and cover sheets.
(4) To a vial containing IL-10 Standard was added […] Standard/Sample diluent, and the vial was stood at room temperature for 15 minutes to be dissolved (Standard sample stock solution 1L-10 concentration: 500 pg/mL).
(5) Standard samples in each concentration for making a standard curve were prepared as follows. Firstly, to 300 μL of the medium was added 300 μL of the standard sample stock solution, and the mixture was mixed with a Voltex mixer (250 pg/mL). Next, 300 μL of the standard sample of 250 pg/mL was added to 300 μL of the medium and the mixture was mixed with a Voltex mixer (125 pg/mL). The same procedures were successively repeated to prepare standard solutions of 62.5, 31.25, 15.625, and 7.8125 pg/mL. As 0 pg/mL standard solution, the medium was used.
(6) A kit containing wells treated with anti-IL-10 antibody (8 wells/strip) was warmed to room temperature and 50 μL of ELISA diluent in the kit was added into each well.
(7) To each well containing ELISA diluent, 100 μL of the standard samples of each concentration and each test sample (diluded 50-100 fold with medium) were added.
(8) After the wells were sealed with a cover sheet and gently tapped, they were left at room temperature for 2 hours.
(9) 20× Wash Buffer was diluted 20-fold with water to prepare 1× Wash Buffer.
(10) After the reaction was done for 2 hours, the solutions in each well were aspirated and washed 5 times with 300 μL of 1× Wash Buffer.
(11) After Enzyme Concentrate (4 μL per 8 wells) was added to Detection antibody (1 ml per 8 wells), the solution was mixed by a Vortex mixer and then a necessary amount of Working Detector was prepared.
(12) 100 μL of Working Detector was added to each well, covered with a cover sheet, and the wells were left at room temperature for an hour.
(13) After the reaction was done for an hour, the solutions in wells were aspirated and washed 7 times with 300 μL of 1× Wash Buffer. […]

[1] abbreviates: Homo sapiens, 48 h, 25.0 μmol/L, DMSO control = 100%, read-out: % against control (CTLA-4 expression).

As to `COC(=O)C1=CN2CCc3c([nH]c4ccc(Cl)cc34)[C@@H]2[C@@H]2[C@@H](C)[C@@H](O)C[C@H]12` [Compound 12], the “Peak MFI of CTLA-4” value with CTLA-4 (25.0 μmol/L) is on record as 485. The activity at 25 µM with CTLA-4 (setting [1]) is 57.2%. For the same molecule, in the assay with IL-10 (12.5 μmol/L), the “IL-10 (ng/10^6 cells) ± standard deviate (n = 3)” value came to 7.1 ± 0.2 ng/10^6 cells and the activity at 12.5 µM came out at 75.7%. In the assay with IL-10 (25.0 μmol/L), the “IL-10 (ng/10^6 cells) ± standard deviate (n = 3)” value was 4.8 ± 0.3 ng/10^6 cells and the activity at 25 µM turned out to be 50.9%.

`COC(=O)C1=CN2CCc3c([nH]c4ccc(OCc5ccccc5)cc34)[C@@H]2[C@@H]2[C@@H](C)[C@@H](O)C[C@H]12` [Compound 15]: in the assay with CTLA-4 (25.0 μmol/L), the “Peak MFI of CTLA-4” value is on record as 284. Further, the activity at 25 µM in the assay with CTLA-4 (setting [1]) was determined as 37.7%. Besides, in the assay on IL-10 (12.5 μmol/L), the “IL-10 (ng/10^6 cells) ± standard deviate (n = 3)” value is listed as 6.5 ± 0.2 ng/10^6 cells and the activity at 12.5 µM turned out to be 59.3%. In the assay on IL-10 (25.0 μmol/L), the “IL-10 (ng/10^6 cells) ± standard deviate (n = 3)” value turned out to be 0.6 ± 0.4 ng/10^6 cells and the activity at 25 µM was determined as 5.1%.

`COC(=O)C1=CN2CCc3c([nH]c4cc(Cl)ccc34)[C@@H]2[C@@H]2[C@@H](C)[C@@H](O)C[C@H]12` [Compound 9]: the “Peak MFI of CTLA-4” value is recorded as 778 in the assay on CTLA-4 (12.5 μmol/L) and 539 with CTLA-4 (25.0 μmol/L). The activity at 12.5 µM in the assay on CTLA-4 (Homo sapiens, 48 h, 12.5 μmol/L, DMSO control = 100%, read-out: % against control (CTLA-4 expression)) worked out at 76.3%; with IL-10 (12.5 μmol/L), 67.7%. Moreover, the activity at 25 µM in the assay with CTLA-4 (setting [1]) was 52.8%; with IL-10 (25.0 μmol/L), 37.5%. Also, the “IL-10 (ng/10^6 cells) ± standard deviate (n = 3)” value in the assay with IL-10 (12.5 μmol/L) came to 11.1 ± 1.3 ng/10^6 cells; in the assay with IL-10 (25.0 μmol/L), 6.1 ± 1.3 ng/10^6 cells.

For the molecule `COC(=O)C1=CN2CCc3c([nH]c4cc(OC)ccc34)[C@@H]2[C@@H]2[C@@H](C)[C@@H](O)C[C@H]12` [Compound 8], in the assay with CTLA-4 (25.0 μmol/L), the “Peak MFI of CTLA-4” value turned out to be 361. The activity at 25 µM came to 50% in the assay on CTLA-4 (setting [1]) and 48.4% in the assay on IL-10 (25.0 μmol/L). Moreover, the “IL-10 (ng/10^6 cells) ± standard deviate (n = 3)” value with IL-10 (12.5 μmol/L) is listed as 15.5 ± 1.2 ng/10^6 cells; in the assay with IL-10 (25.0 μmol/L) it was 7.9 ± 0.4 ng/10^6 cells. The activity at 12.5 µM in the assay on IL-10 (12.5 μmol/L) is 94.6%.

On to `COC(=O)C1=CN2CCc3c([nH]c4c(F)cccc34)[C@@H]2[C@@H]2[C@@H](C)[C@@H](O)C[C@H]12` [Compound 17], for which the “Peak MFI of CTLA-4” value in the assay with CTLA-4 (25.0 μmol/L) was determined as 339. The activity at 25 µM in the assay with CTLA-4 (setting [1]) amounted to 45%. Further, in the assay on IL-10 (12.5 μmol/L), the “IL-10 (ng/10^6 cells) ± standard deviate (n = 3)” value was found to be 7.0 ± 0.2 ng/10^6 cells and the activity at 12.5 µM was 64.2%. In addition, in the assay with IL-10 (25.0 μmol/L), the “IL-10 (ng/10^6 cells) ± standard deviate (n = 3)” value turned out to be 6.0 ± 0.2 ng/10^6 cells and the activity at 25 µM stood at 54.2%.

For the molecule `COC(=O)C1=CN2CCc3c([nH]c4ccc(C)cc34)[C@@H]2[C@@H]2[C@@H](C)[C@@H](O)C[C@H]12` [Compound 14], in the assay on CTLA-4 (25.0 μmol/L), the “Peak MFI of CTLA-4” value turned out to be 450. For the same molecule, the activity at 25 µM with CTLA-4 (setting [1]) was 53%. Besides, in the assay on IL-10 (12.5 μmol/L), the “IL-10 (ng/10^6 cells) ± standard deviate (n = 3)” value is 7.4 ± 0.3 ng/10^6 cells and the activity at 12.5 µM stood at 67.7%. In the assay on IL-10 (25.0 μmol/L), the “IL-10 (ng/10^6 cells) ± standard deviate (n = 3)” value was 4.3 ± 1.0 ng/10^6 cells and the activity at 25 µM was 39.2%.

(Values after US10550120B2, “Indole alkaloid compound having immune checkpoint inhibitory action” (TOHOKU UNIVERSITY, priority 2016, dated 2020).)
